# Assays:
# Saccharomyces cerevisiae [1] = assay: Competitive inhibition of yeast alpha-glucosidase assessed as Vmax for substrate at 8 uM using p-nitrophenyl-alpha-D-glucopyranoside as substrate incubated for 30 mins by Lineweaver-Burk plot method
# Saccharomyces cerevisiae [2] = assay: Competitive inhibition of yeast alpha-glucosidase assessed as Vmax for substrate at 10 uM using p-nitrophenyl-alpha-D-glucopyranoside as substrate incubated for 30 mins by Lineweaver-Burk plot method
# Saccharomyces cerevisiae [3] = assay: Competitive inhibition of yeast alpha-glucosidase assessed as apparent Km for substrate at 2 uM using p-nitrophenyl-alpha-D-glucopyranoside as substrate incubated for 30 mins by Lineweaver-Burk plot method
# Saccharomyces cerevisiae [4] = assay: Competitive inhibition of yeast alpha-glucosidase assessed as Vmax for substrate at 2 uM using p-nitrophenyl-alpha-D-glucopyranoside as substrate incubated for 30 mins by Lineweaver-Burk plot method
# [5] = Inhibition of yeast alpha-glucosidase using 4-nitrophenyl-alpha-D-glucopyranoside as substrate incubated for 15 mins by spectrophotometric method; set-up: species or system Saccharomyces cerevisiae
# Saccharomyces cerevisiae [6] = assay: Competitive inhibition of yeast alpha-glucosidase assessed as Vmax for substrate at 6 uM using p-nitrophenyl-alpha-D-glucopyranoside as substrate incubated for 30 mins by Lineweaver-Burk plot method
# Saccharomyces cerevisiae [7] = assay: Competitive inhibition of yeast alpha-glucosidase assessed as apparent Km for substrate at 6 uM using p-nitrophenyl-alpha-D-glucopyranoside as substrate incubated for 30 mins by Lineweaver-Burk plot method
# Saccharomyces cerevisiae [8] = assay: Competitive inhibition of yeast alpha-glucosidase assessed as Vmax for substrate at 4 uM using p-nitrophenyl-alpha-D-glucopyranoside as substrate incubated for 30 mins by Lineweaver-Burk plot method
# Saccharomyces cerevisiae [9] = assay: Competitive inhibition of yeast alpha-glucosidase assessed as apparent Km for substrate at 4 uM using p-nitrophenyl-alpha-D-glucopyranoside as substrate incubated for 30 mins by Lineweaver-Burk plot method
# BHK-21 = assay: Cytotoxicity against BHK21 cells; assay type: cell-based, Mesocricetus auratus; details: hamster
# Saccharomyces cerevisiae [10] = assay: Competitive inhibition of yeast alpha-glucosidase assessed as apparent Km for substrate at 10 uM using p-nitrophenyl-alpha-D-glucopyranoside as substrate incubated for 30 mins by Lineweaver-Burk plot method
# yeast alpha-glucosidase = assay: Ratio of IC50 for BHK21 cells to IC50 for yeast alpha-glucosidase; assay type: toxicity; details: hamster, read-out: Ratio IC50
# Saccharomyces cerevisiae [11] = assay: Competitive inhibition of yeast alpha-glucosidase assessed as apparent Km for substrate at 8 uM using p-nitrophenyl-alpha-D-glucopyranoside as substrate incubated for 30 mins by Lineweaver-Burk plot method
# [12] = Inhibition of yeast alpha-glucosidase using nitrophenol-D-glucopyranoside as substrate incubated for 15 mins; set-up: species or system Saccharomyces cerevisiae
# Alpha glucosidase = Alpha glucosidase (Homo sapiens, UniProt O43451+P10253+P14410+Q2M2H8); assay: Inhibition of alpha-glucosidase (unknown origin); assay type: protein assay
smiles,measurement,setting,value
Cc1cc(C(=O)C2C(=O)Nc3ccc(F)cc32)c(C(=O)N2CCCCC2)c(=O)[nH]1 (stereo not given),Vmax,Saccharomyces cerevisiae [1],41.6 µM/min
same,Vmax,Saccharomyces cerevisiae [2],40 µM/min
same,Km,Saccharomyces cerevisiae [3],1.64 µM
same,Vmax,Saccharomyces cerevisiae [4],41.6 µM/min
same,IC50,[5],0.646 µM
same,Vmax,Saccharomyces cerevisiae [6],40 µM/min
same,Km,Saccharomyces cerevisiae [7],1.8 µM
same,Vmax,Saccharomyces cerevisiae [8],40 µM/min
same,Km,Saccharomyces cerevisiae [9],1.79 µM
same,Activity,BHK-21,Non-Toxic
same,Km,Saccharomyces cerevisiae [10],2.92 µM
same,selectivity ratio,yeast alpha-glucosidase,100
same,Km,Saccharomyces cerevisiae [11],2.54 µM
Cc1cc2c(c(=O)[nH]1)C(=O)O/C2=C/c1cc(Br)cs1,IC50,[12],0.24 µM
Cc1cc2c(c(=O)[nH]1)C(=O)OC2C1(O)C(=O)N(C)c2ccccc21 (stereo not given),IC50,[5],27.6 µM
CCC1NC(CC)C(O)C(O)C1O (stereo not given),IC50,Alpha glucosidase,10 µM
Cc1cc(C(=O)C2C(=O)Nc3ccc([N+](=O)[O-])cc32)c(C(=O)N2CCCCC2)c(=O)[nH]1 (stereo not given),IC50,[5],4.56 µM
Cc1cc(/C(O)=C2/C(=O)N(C)c3ccc(Br)cc32)c(C(=O)N2CCCCC2)c(=O)[nH]1,IC50,[5],6.41 µM
C[C@H]1O[C@H](O[C@H]2[C@H](O)[C@@H](O)[C@@H](O[C@H]3[C@H](O)[C@@H](O)C(O)O[C@@H]3CO)O[C@@H]2CO)[C@H](O)[C@@H](O)[C@@H]1N[C@H]1C=C(CO)[C@@H](O)[C@H](O)[C@H]1O (stereo not given in full) [ACARBOSE],IC50,[5],4.02 µM
Cc1cc(C(=O)C2C(=O)N(Cc3ccccc3)c3ccccc32)c(C(=O)N2CCCCC2)c(=O)[nH]1 (stereo not given),IC50,[5],3.01 µM
Cc1cc(C(=O)C2C(=O)Nc3ccccc32)c(C(=O)N2CCCCC2)c(=O)[nH]1 (stereo not given),IC50,[5],2.67 µM
same,Activity,BHK-21,Non-Toxic
same,selectivity ratio,yeast alpha-glucosidase,100
Cc1cc(C(=O)C2C(=O)Nc3ccccc32)c(C(=O)N2CCCC2)c(=O)[nH]1 (stereo not given),IC50,[5],2.61 µM
same,Activity,BHK-21,Non-Toxic
same,selectivity ratio,yeast alpha-glucosidase,100
Cc1cc(C(=O)C2C(=O)N(Cc3ccccc3)c3ccc(Br)cc32)c(C(=O)N2CCCCC2)c(=O)[nH]1 (stereo not given),IC50,[5],2.21 µM
same,Activity,BHK-21,Non-Toxic
same,selectivity ratio,yeast alpha-glucosidase,100
Cc1cc(/C(O)=C2/C(=O)Nc3ccc(Br)cc32)c(C(=O)N2CCCCC2)c(=O)[nH]1,IC50,[5],2.03 µM
same,Activity,BHK-21,Non-Toxic
same,selectivity ratio,yeast alpha-glucosidase,100
Cc1cc2c(c(=O)[nH]1)C(=O)O/C2=C1\C(=O)Nc2ccccc21,IC50,[5],47.2 µM
Cc1cc(C(=O)C2C(=O)N(C)c3ccccc32)c(C(=O)N2CCCCC2)c(=O)[nH]1 (stereo not given),IC50,[5],10.2 µM
Cc1cc(C(=O)C2C(=O)N(Cc3ccccc3)c3ccc(F)cc32)c(C(=O)N2CCCCC2)c(=O)[nH]1 (stereo not given),IC50,[5],8.21 µM
Cc1cc2c(c(=O)[nH]1)C(=O)OC2C1(O)C(=O)N(Cc2ccccc2)c2ccc(Br)cc21 (stereo not given),IC50,[5],42.5 µM
Cc1cc2c(c(=O)[nH]1)C(=O)O/C2=C1\C(=O)Nc2ccc(Br)cc21,IC50,[5],33 µM
Cc1cc2c(c(=O)[nH]1)C(=O)OC2C1(O)C(=O)N(C)c2ccc(Br)cc21 (stereo not given),IC50,[5],36.1 µM
Nc1ccn(C2OC(CO)[C@@H](O)[C@H]2O)c(=O)n1 (stereo not given in full),IC50,Alpha glucosidase,2.5 µM
Cc1cc(C(=O)C2C(=O)N(C)c3ccc(F)cc32)c(C(=O)N2CCCCC2)c(=O)[nH]1 (stereo not given),IC50,[5],10 µM
